According to patent publication US12391660B2, “Heteroaromatic acetamide derivative, and preparation and use thereof” (Hangzhou Westan Pharmaceutical Technology Co., Ltd, priority 2019, dated 2025):

Columns and labels:
[1] = target: human TRPA1 (Homo sapiens (Human), UniProt O75762); experiment: FLIPR assay of inhibitory activity on human TRPA1 (calcium ion flux fluorescence); format: cell-based; conditions: HEK293 cells stably expressing human TRPA1
Procedure, shortened: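 Tetracycline-induced (0.1 μg/ml) HEK293 cells stably expressing human TRPA1, loaded with 5 μM Fluo-4 AM for 1 h at 37° C. Compounds added in 1:5 dilutions from 30 μM (9 points, duplicate), then 3 mM CaCl2 after 10 min; fluorescence peak at 538 nm gave IC50.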

[2] = target: human TRPC6 (Homo sapiens (Human), UniProt Q9Y210); experiment: Inhibitory activity on human TRPC6 by conventional patch clamp assay; format: cell-based; conditions: HEK293 human TRPC6, read-out: TRPC6 Inhibition rate (5 μM)
human TRPC6, sequence (Q9Y210 whole entry): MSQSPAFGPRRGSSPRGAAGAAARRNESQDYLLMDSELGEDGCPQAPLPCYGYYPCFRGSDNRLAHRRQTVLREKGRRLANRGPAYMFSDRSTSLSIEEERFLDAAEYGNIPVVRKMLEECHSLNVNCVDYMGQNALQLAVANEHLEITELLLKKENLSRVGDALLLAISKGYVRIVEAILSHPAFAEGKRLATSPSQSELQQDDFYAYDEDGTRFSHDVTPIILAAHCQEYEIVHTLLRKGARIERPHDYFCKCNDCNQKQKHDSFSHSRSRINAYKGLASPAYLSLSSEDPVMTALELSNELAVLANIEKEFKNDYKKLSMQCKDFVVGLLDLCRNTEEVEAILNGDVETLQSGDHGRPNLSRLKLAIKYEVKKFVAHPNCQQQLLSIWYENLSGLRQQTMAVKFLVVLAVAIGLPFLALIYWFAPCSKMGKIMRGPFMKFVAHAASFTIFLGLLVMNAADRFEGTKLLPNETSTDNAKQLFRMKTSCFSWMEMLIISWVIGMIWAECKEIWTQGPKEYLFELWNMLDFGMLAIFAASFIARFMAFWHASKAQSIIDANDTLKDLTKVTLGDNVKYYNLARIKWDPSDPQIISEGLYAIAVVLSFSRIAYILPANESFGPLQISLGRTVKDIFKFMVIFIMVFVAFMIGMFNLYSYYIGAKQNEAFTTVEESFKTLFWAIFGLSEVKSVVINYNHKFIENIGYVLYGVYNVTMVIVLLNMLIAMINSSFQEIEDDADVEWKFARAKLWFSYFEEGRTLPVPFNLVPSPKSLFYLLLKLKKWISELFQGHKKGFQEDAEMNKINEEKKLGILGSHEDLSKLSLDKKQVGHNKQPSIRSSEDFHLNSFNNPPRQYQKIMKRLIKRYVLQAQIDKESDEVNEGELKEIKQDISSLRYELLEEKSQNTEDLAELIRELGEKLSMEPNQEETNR
Experimental: 3. Inhibitory Activity on Human TRPC6 by Conventional Patch Clamp Assay
In order to test the selectivity of the compounds in TRPA1 inhibition, a conventional patch clamp method was used to further measure the inhibitory activity of compounds on TRPC6. The principle and procedures of the conventional patch clamp assay could be found in the literature report of Ambrus et al [Ambrus et al. J Cell and Mol Med 2015, 19 (12):2771-9].
Evaluation of TRPC6 inhibitory activity of compounds was conducted using the HEK293 recombinant cell strain (Creative Biogene, NY) stably expressing human TRPC6. Cells were cultured in a DMEM/F12 (3:1, Thermo Fisher Scientific) medium (containing 5% calf serum, 2 mM glutamine and 20 mM HEPES) in an incubator at 37° C. and air humidity containing 5% CO2.
During the experiment, the adherent cells were placed in a recording room under the inverted microscope. All experiments were performed at room temperature. Each cell itself was used as a control thereof.
Test compounds at a final concentration were all prepared on the testing day and then dissolved in the extracellular fluid. The extracellular fluid was (mM): NaCl, 137; KCl, 4; CaCl2, 1.8; MgCl2, 1; HEPES, 10; glucose 10; pH 7.4 (NaOH titration). Low-Ca extracellular fluid was (mM): NaCl, 138.3; KCl, 4; CaCl2, 0.5; MgCl2, 1; HEPES, 10; glucose 10; pH 7.4 (NaOH titration). […]

human TRPA1, sequence (O75762 whole entry): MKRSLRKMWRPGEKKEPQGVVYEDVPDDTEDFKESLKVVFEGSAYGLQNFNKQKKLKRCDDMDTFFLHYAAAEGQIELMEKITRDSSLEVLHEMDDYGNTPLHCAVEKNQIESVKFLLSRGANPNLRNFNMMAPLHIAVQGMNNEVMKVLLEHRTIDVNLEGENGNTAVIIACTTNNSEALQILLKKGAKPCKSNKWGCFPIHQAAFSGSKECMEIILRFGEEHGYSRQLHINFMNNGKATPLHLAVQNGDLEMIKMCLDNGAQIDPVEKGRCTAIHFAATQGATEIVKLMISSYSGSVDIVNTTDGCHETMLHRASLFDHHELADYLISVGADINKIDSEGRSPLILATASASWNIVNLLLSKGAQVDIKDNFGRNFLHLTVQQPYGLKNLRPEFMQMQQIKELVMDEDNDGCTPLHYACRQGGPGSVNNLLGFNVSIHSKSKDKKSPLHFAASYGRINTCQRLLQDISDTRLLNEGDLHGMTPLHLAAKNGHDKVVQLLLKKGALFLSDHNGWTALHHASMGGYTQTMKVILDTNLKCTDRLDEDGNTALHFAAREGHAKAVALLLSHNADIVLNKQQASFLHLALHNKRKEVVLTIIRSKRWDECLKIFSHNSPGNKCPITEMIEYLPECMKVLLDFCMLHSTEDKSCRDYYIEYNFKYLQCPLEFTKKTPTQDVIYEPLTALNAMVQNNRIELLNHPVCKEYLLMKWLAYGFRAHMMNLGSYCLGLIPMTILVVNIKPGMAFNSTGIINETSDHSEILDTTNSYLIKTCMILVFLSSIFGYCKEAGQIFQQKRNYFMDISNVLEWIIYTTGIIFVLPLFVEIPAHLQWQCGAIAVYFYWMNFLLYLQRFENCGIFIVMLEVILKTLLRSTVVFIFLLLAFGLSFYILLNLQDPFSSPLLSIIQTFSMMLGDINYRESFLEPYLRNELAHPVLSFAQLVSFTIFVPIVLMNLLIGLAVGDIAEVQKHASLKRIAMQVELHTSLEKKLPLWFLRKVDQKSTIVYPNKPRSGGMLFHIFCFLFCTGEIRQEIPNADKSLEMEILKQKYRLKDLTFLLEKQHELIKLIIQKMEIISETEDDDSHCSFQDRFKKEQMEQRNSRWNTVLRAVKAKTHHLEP

Row | Structure (SMILES) | IC50 [1] | inhibition at 5 µM [2]
1 | N#Cc1ccc(NC2(C(=O)N3CCN(c4ccc(C(F)(F)F)cc4)CC3)CCCC2)cc1 [Compound 1, 4-((1-(4-(4-(trifluoromethyl)phenyl)piperazine-1-carbonyl)cyclopentyl)amino)benzonitrile] | 40 nM | -60%
2 | CC(C)(C)C1CCN(C(=O)C2(Nc3ccc(C#N)cc3)CCCC2)CC1 [Compound 31, 4-((1-(4-(tert-butyl)piperidine-1-carbonyl)cyclopentyl)amino)benzonitrile] | 87 nM | 26%
